Results taken from PMC12505902, “Inhibitors of trehalose-6-phosphate synthase activity in fungal pathogens compromise thermal tolerance pathways” (mBio, 2025).
pKd: −log10 of the molar value.

What was measured:
[1] = target: T1, 6xHis-CaTps1 (Candida albicans, UniProt Q92410); test: Glo-melt thermal shift assay; assay type: binding; settings: 1 µM protein, 2 mM 4456dh (Fig 2 legend), incubated overnight at 4°C
T1 construct: Briefly, the full-length; thrombin cleavage site (pET-28a linker) (N); made in house; host or cells: E. coli BL21(DE3)pLysS
T1 sequence (Q92410 1-478): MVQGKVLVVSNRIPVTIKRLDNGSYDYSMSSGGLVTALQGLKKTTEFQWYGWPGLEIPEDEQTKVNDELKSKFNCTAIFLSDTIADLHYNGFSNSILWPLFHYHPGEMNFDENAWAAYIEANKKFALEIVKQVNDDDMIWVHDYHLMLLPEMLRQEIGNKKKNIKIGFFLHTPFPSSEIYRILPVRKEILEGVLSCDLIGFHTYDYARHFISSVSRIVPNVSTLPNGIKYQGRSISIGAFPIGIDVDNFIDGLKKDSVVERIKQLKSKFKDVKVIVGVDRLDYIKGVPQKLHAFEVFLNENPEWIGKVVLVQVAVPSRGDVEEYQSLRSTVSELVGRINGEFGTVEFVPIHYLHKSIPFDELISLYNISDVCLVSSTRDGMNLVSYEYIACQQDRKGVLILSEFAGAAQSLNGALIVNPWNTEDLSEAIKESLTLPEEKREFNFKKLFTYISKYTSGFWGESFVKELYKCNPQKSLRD
Protocol: (§1) Fig 2 4456dh binds Tps1 and inhibits Tps1 activity. (A) Structure of 4456dh. (B and C) Glo-melt thermal shift assays reveal 4456dh destabilizes 6xHis-CaTps1 (B) and 6xHis-CnTps1 (C). The first derivative of the raw data was used to determine the melting temperature of 1 µM 6xHis-CaTps1 (B) and 1 µM 6xHis-CnTps1 (C) treated without (black) or with 2 mM 4456dh (red). […] The resulting dose-response curves were fitted to a one-site binding model to extract Kd values; the SD was calculated using the Kd values from each independent experiment (n = 3). (F) Tps1 enzyme activity assay with 5 µM 6xHis-CaTps1 (F) and 6xHis-CnTps1 (G) ±1 mM 4456dh. Error bars represent SE. Comparison to control, untreated 6xHis-CaTps1, was performed using Student’s t-test; **P < 0.01 and ***P < 0.001.
(§2) Thermal shift assays were completed to determine if 4456dh binds Tps1. […]
(§3) 82 determined by SDS-PAGE analysis, were pooled and concentrated to 1 mg/mL for downstream […]
(§4) 93 The data were acquired with MO.Control 1.5.3 (NanoTemper Technologies GmbH). Recorded
(§5) 94 data were analyzed with MO.Affinity Analysis 2.2.7 (NanoTemper Technologies GmbH). […]
(§6) 100 2X Glo-melt dye. Thermal denaturation was measured using an RT-PCR thermocycler (BioRad) […]
(§7) 102 determined by identifying the inflection point of the derivative data. […]
(§8) 104 The catalytic activity of C. albicans Tps1 and C. neoformans Tps1 was measured via a continuous […]

[2] = target: T2, 6xHis-CnTps1 (Cryptococcus neoformans var. grubii, UniProt J9VJZ1); test: Glo-melt thermal shift assay; assay type: binding; settings: 1 µM protein, 2 mM 4456dh (Fig 2 legend), incubated overnight at 4°C
Protocol: as §1, §2, §3, §4, §5, §6, §7, §8

[3] = target: T1, 6xHis-CaTps1; test: Microscale thermophoresis (MST); settings: label-free MST, one-site binding model, n = 3, SD
Protocol: as §1, with “Comparison to control, untreated 6xHis-CaTps1, was performed using Student’s t-test; **P < 0.01 and ***P < 0.001.” left out
(§9) Given the intrinsic fluorescence of CaTps1 and CnTps1, we were able to detect binding without the use of additional fluorophores. […]
as §3, §4, §5, §6, §7, §8
(§10) 111 reaction rate was recorded using a plate reader (Tecan). […]

[4] = target: T2, 6xHis-CnTps1; test: Microscale thermophoresis (MST); settings: label-free MST, one-site binding model, n = 3, SD
Protocol: as §1, with “Comparison to control, untreated 6xHis-CaTps1, was performed using Student’s t-test; **P < 0.01 and ***P < 0.001.” left out
as §9, §3, §4, §5, §6, §7, §8, §10

T2 sequence (J9VJZ1 entry or part of it): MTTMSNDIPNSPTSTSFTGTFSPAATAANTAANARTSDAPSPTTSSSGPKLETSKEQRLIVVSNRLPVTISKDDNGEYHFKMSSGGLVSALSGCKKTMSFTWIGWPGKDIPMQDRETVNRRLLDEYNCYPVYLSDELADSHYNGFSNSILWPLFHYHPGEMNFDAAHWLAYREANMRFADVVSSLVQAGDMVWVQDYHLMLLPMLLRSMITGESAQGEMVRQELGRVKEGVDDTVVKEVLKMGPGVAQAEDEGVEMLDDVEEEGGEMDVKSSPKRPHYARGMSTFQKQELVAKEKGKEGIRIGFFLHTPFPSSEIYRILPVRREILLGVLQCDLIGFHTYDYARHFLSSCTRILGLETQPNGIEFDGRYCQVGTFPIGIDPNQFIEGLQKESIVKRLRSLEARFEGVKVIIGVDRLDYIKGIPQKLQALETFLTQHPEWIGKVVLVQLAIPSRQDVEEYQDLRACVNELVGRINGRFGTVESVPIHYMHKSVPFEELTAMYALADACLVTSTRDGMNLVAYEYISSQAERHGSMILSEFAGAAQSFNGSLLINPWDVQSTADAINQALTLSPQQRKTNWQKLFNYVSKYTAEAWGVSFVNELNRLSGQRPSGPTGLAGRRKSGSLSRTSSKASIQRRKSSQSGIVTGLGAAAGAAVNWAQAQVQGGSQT

Question: Which “effect on melting temperature” value [1] does the source give for `Cn1cc(-c2csc(NC(=O)Cc3ccccn3)n2)cn1` [Compound 4456dh] here?
Answer: decreased the melting temperature

Question: And the “effect on melting temperature” value [2]?
Answer: decreased the melting temperature

Question: What about the pKd [3] of the same compound?
Answer: 5.15

Question: What about the pKd [4] of the same compound?
Answer: 4.48
